Data on two compounds can be found in patent publication US20200054653A1, “ACEFAPC FOR THE TREATMENT OF ACETYLCHOLINE-DEPENDENT DISEASES” (LIPTHER, priority 2017, published 2020).

Where two headings read alike, the source gives them in different places.

Data set [1] addresses microbial (Streptomyces chromofuscus) phospholipase D (Streptomyces chromofuscus, UniProt Q8KRU5). The experiment in a line: Acellular incubation of AceFaPC with phospholipase D, acetylcholine detected by mass spectrometry. It counts as biochemical. To be noted: Tris-HCl pH 8, one hour at 37° C. On the procedure:
Acellular incubation of AceFaPC was performed in the presence of a microbial (Streptomyces chromofuscus) phospholipase D in a Tris-HCl pH 8 (brain pH) buffer for one hour at 37° C. Following incubation, phospholipase D was destroyed by adding ethanol. After centrifugation, the aqueous ethanolic mixture was separated and evaporated to dryness. The residue was dissolved in the mixture 95% acetonitrile/5% ammonium formate and then filtered by centrifugation. Acetylcholine was detected in the solution by mass spectrometry. Acetylcholine was detected on the basis of both its molecular mass (146) and that of its main fragmentation product (87: majority ion corresponding to the radical CH3—COO—CH2—CH2—) (FIG. 2).
In these acellular experiments, two substrates were used considering the lowest unsaturation for acyl in the sn-2 position, namely the oleoyl radical (R2—COO—, FIG. 1): AceOIPC and the highest with the docosahexaenoyl radical: AceDoPC®. For AceOIPC, approximately 5% of the released choline was converted to acetylcholine. For AceDoPC®, this conversion reached 36%. The reasons for this difference are unknown at this stage of the experiment. […]

For data set [2] the following is noted: rat, cited from earlier work.
Data set [3] has as its system reconstituted blood-brain barrier. To be noted: compared with non-esterified DHA or PC-DHA; cited from earlier work.
The test system of data set [4] is brain lesions after ischemic stroke. To be noted: injected into rats after ischemic stroke; cited from earlier work.

Sequence of microbial (Streptomyces chromofuscus) phospholipase D (Q8KRU5 47-556): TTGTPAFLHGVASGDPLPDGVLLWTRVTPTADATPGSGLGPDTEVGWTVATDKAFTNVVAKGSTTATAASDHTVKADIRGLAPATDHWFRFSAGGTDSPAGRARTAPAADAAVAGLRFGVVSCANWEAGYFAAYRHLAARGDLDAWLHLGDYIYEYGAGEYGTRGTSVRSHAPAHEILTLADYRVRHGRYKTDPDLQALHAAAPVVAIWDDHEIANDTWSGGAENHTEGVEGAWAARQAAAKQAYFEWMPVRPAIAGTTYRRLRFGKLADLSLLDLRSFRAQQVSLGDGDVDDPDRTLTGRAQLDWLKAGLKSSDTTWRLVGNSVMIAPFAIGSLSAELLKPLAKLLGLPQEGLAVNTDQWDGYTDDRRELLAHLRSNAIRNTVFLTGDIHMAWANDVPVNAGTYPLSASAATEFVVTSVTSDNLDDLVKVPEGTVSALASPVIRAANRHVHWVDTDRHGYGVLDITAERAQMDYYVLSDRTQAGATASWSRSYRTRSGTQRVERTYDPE

Consider `CC/C=C\C/C=C\C/C=C\C/C=C\C/C=C\C/C=C\CCC(=O)O[C@H](COC(C)=O)COP(=O)([O-])OCC[N+](C)(C)C` [AceDoPC, 1-acetyl,2-docosahexaenoyl-phosphatidylcholine], for which the “released choline converted to acetylcholine” value in data set [1] is 36%. Moreover, the “radioactivity of AceDoPC in brain, % of the total injected” value is 80% in data set [2] (after 1 hour), 30% in data set [2] (after 24 hours) and 10% in data set [2] (after 48 hours). In addition, the “passage of a reconstituted blood-brain barrier” value in data set [3] is “promoted”. Besides, in data set [4], the “spread of brain lesions” value was “prevented the spread of brain lesions”.
Consider `CCCCCCCCC=CCCCCCCCC(=O)OC(COC(C)=O)COP(=O)([O-])OCC[N+](C)(C)C` (stereo not shown) [AceOIPC], for which the “released choline converted to acetylcholine” value in data set [1] is listed as “approximately 5%”.
